Results on one molecule are retold here after ChEMBL document CHEMBL4382214, “Antileishmanial activity of new hybrid tetrahydroquinoline and quinoline derivatives with phosphorus substituents” (Eur J Med Chem, 2019).

The EC50 is the concentration needed to bring the measured effect to its halfway point. By CC50 is commonly meant the concentration at which the toxic effect on the cells reaches its halfway point. The term IC50 denotes the concentration that gives 50% inhibition.

Data set [1] deals with Leishmania infantum. As to the kind of experiment: Leishmanicidal activity against amastigote stage of iRFP expressing Leishmania infantum BCN150 infected in BALB/c mouse splenocytes assessed as decrease in parasite viability by fluorescence assay. It counts as functional, organism-based.
The nature of data set [2]: Cytotoxicity against BALB/c mouse splenocytes assessed as reduction in cell viability by alamar blue assay. It counts as cell-based, Splenocyte.
Data set [3] deals with Leishmania infantum. Description: Leishmanicidal activity against promastigote stage of iRFP expressing Leishmania infantum BCN150 assessed as decrease in parasite viability after 72 hrs by fluorescence assay. It counts as functional, organism-based. To be noted: BCN150, 72 h.
The target of another data set is T1, DNA topoisomerase 1 (Homo sapiens, UniProt P11387).
T1 sequence (P11387 whole entry): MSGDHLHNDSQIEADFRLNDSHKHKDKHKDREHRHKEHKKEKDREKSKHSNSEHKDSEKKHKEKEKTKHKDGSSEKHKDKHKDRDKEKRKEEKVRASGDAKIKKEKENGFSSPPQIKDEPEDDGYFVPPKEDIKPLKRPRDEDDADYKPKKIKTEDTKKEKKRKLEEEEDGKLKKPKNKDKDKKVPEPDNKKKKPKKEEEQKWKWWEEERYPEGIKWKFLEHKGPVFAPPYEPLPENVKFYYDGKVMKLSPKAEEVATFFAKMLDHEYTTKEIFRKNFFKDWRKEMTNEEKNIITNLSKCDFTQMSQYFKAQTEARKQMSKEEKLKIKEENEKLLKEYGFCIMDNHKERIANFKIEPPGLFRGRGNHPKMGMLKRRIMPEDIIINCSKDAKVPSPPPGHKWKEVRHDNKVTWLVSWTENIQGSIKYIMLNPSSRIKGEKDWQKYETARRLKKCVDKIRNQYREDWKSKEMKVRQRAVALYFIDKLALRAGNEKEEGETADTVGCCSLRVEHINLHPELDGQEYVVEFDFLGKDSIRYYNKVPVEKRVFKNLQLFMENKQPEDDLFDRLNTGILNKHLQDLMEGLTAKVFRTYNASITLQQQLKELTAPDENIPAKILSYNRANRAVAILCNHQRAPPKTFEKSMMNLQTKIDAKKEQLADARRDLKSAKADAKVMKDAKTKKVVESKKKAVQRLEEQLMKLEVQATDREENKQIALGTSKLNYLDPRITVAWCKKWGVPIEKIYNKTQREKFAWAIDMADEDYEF
Description: Inhibition of human Top1B expressed in Top1B deficient Saccharomyces cerevisiae EKY3 assessed as decrease in relaxation of supercoiled pSK DNA preincubated for 15 mins followed by DNA addition and measured after 5 mins by agarose gel electrophoresis. As to conditions: read-out: IC50.

Data set [4] deals with T2, DNA topoisomerase 1 (Homo sapiens) (UniProt P11387).
T2 sequence (whole entry): T1 sequence (P11387 whole entry)
Description: Inhibition of human Top1B expressed in Top1B deficient Saccharomyces cerevisiae EKY3 assessed as decrease in relaxation of supercoiled pSK DNA preincubated for 15 mins followed by DNA addition and measured after 16 mins by agarose gel electrophoresis.

Data set [5] in a line: Selectivity index, ratio of CC50 for BALB/c mouse splenocytes to EC50 for amastigote stage of iRFP expressing Leishmania infantum BCN150 infected in BALB/c mouse splenocytes. In kind it is toxicity, cell-based. To be noted: read-out: Ratio CC50/EC50.
Data set [6] deals with T2, DNA topoisomerase 1 (Homo sapiens). Description: Inhibition of human Top1B expressed in Top1B deficient Saccharomyces cerevisiae EKY3 assessed as decrease in relaxation of supercoiled pSK DNA preincubated for 15 mins followed by DNA addition and measured after 2 to 8 mins by agarose gel electrophoresis.
Data set [7] has as its system Leishmania donovani. As to the kind of experiment: Inhibition of Leishmania donovani Top1B expressed in Top1B deficient Saccharomyces cerevisiae EKY3 assessed as decrease in relaxation of supercoiled pSK DNA preincubated for 15 mins followed by DNA addition and measured after 2 to 8 mins by agarose gel electrophoresis.
Data set [8] deals with Leishmania donovani. Description: Inhibition of Leishmania donovani Top1B expressed in Top1B deficient Saccharomyces cerevisiae EKY3 assessed as decrease in relaxation of supercoiled pSK DNA preincubated for 15 mins followed by DNA addition and measured after 16 mins by agarose gel electrophoresis.
Data set [9] in a line: Inhibition of Leishmania donovani Top1B expressed in Top1B deficient Saccharomyces cerevisiae EKY3 assessed as decrease in relaxation of supercoiled pSK DNA preincubated for 15 mins followed by DNA addition and measured after 5 mins by agarose gel electrophoresis. To be noted: read-out: IC50.

SMILES strings stand for the structures. Calls of active or inactive are those of the source. No cut-off for these calls is given here.

On to `O=P(c1ccccc1)(c1ccccc1)c1cccc2c(-c3ccc(F)cc3)cc(-c3ccc(F)c(F)c3)nc12`, for which the figures for the EC50 in the data set with Leishmania infantum [1] and in the data set on Leishmania infantum [3] were 2150 nM and 2330 nM, respectively. For the same molecule, in data set [2], the half-maximal cytotoxic concentration (CC50) is 23.9 µM. For the same molecule, the half-inhibitory concentration (IC50) at DNA topoisomerase 1 came out at 69.6 µM; in [9], 48.1 µM. For the same molecule, the inhibition result (in data set [4]; in the data set with Leishmania donovani [8]) was “inactive” each time. The selectivity ratio in [5] is 11.1. For the same molecule, the inhibition result (in data set [6]; in the data set on Leishmania donovani [7]) was “Active” throughout.
